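48-hour exposure; five concentrations; linearly interpolated endpoints. TGI is the concentration that stops growth completely.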
How the values were obtained:
Assay in all cases: growth of human tumour cells (NCI), 48 h
[1] = test system: RXF 393 renal
[2] = test system: OVCAR-8 ovarian
[3] = test system: NCI-H460 lung
[4] = test system: OVCAR-3 ovarian
[5] = test system: LXFL 529 NSCLC
[6] = test system: SF-539 CNS
[7] = test system: UACC-257 melanoma
[8] = test system: HCT-116 colon
[9] = test system: SR leukemia
[10] = test system: SN12C renal
[11] = test system: RPMI-8226 leukemia
[12] = test system: M14 melanoma
[13] = test system: HCT-15 colon
[14] = test system: SNB-19 CNS
[15] = test system: TK-10 renal
[16] = test system: CAKI-1 renal
[17] = test system: EKVX NSCLC
[18] = test system: KM20L2 colon
[19] = test system: HL-60(TB) leukemia
[20] = test system: SK-MEL-2 melanoma
[21] = test system: M19-MEL melanoma
[22] = test system: SK-MEL-5 melanoma
[23] = test system: DMS 273 small cell lung
[24] = test system: HOP-62 NSCLC
[25] = test system: UACC-62 melanoma
[26] = test system: HOP-92 NSCLC
[27] = test system: SK-MEL-28 melanoma
[28] = test system: 786-0 renal
[29] = test system: COLO 205 colon
[30] = test system: CCRF-CEM leukemia
[31] = test system: K-562 leukemia
[32] = test system: KM12 colon
[33] = test system: NCI-H23 lung
[34] = test system: HCC-2998 colon
[35] = test system: U251 CNS
[36] = test system: DMS 114 small cell lung
[37] = test system: LOX IMVI melanoma
[38] = test system: SK-OV-3 ovarian
[39] = test system: SW-620 colon
[40] = test system: IGROV1 ovarian
[41] = test system: UO-31 renal
[42] = test system: OVCAR-4 ovarian
[43] = test system: SF-295 CNS
[44] = test system: A549 NSCLC
[45] = test system: SF-268 CNS
[46] = test system: DLD-1 colon
[47] = test system: XF 498 CNS
[48] = test system: A498 renal
[49] = test system: SNB-78 CNS
[50] = test system: ACHN renal
[51] = test system: MOLT-4 leukemia
[52] = test system: SNB-75 CNS
[53] = test system: HOP-18 NSCLC
[54] = test system: NCI-H226 lung
[55] = test system: HT29 colon
[56] = test system: OVCAR-5 ovarian
[57] = test system: MALME-3M melanoma
[58] = test system: NCI-H522 lung
[59] = test system: RXF-631 renal

SMILES: CC1(C)CCC(Sc2ccccc2)O1 (stereo not drawn)
- TGI [1]: > 100 µM
- TGI [2]: > 100 µM
- TGI [3]: > 100 µM
- TGI [4]: > 100 µM
- TGI [5]: > 100 µM
- TGI [6]: > 100 µM
- TGI [7]: > 100 µM
- TGI [8]: > 100 µM
- TGI [9]: > 100 µM
- TGI [10]: > 100 µM
- TGI [11]: > 100 µM
- TGI [12]: > 100 µM
- TGI [13]: > 100 µM
- TGI [14]: > 100 µM
- TGI [15]: > 100 µM
- TGI [16]: > 100 µM
- TGI [17]: > 100 µM
- TGI [18]: > 100 µM
- TGI [19]: > 100 µM
- TGI [20]: > 100 µM
- TGI [21]: > 100 µM
- TGI [22]: > 100 µM
- TGI [23]: > 100 µM
- TGI [24]: > 100 µM
- TGI [25]: > 100 µM
- TGI [26]: > 100 µM
- TGI [27]: > 100 µM
- TGI [28]: > 100 µM
- TGI [29]: > 100 µM
- TGI [30]: > 100 µM
- TGI [31]: > 100 µM
- TGI [32]: > 100 µM
- TGI [33]: > 100 µM
- TGI [34]: > 100 µM
- TGI [35]: > 100 µM
- TGI [36]: > 100 µM
- TGI [37]: > 100 µM
- TGI [38]: > 100 µM
- TGI [39]: > 100 µM
- TGI [40]: > 100 µM
- TGI [41]: > 100 µM
- TGI [42]: > 100 µM
- TGI [43]: > 100 µM
- TGI [44]: > 100 µM
- TGI [45]: > 100 µM
- TGI [46]: > 100 µM
- TGI [47]: > 100 µM
- TGI [48]: > 100 µM
- TGI [49]: > 100 µM
- TGI [50]: > 100 µM
- TGI [51]: > 100 µM
- TGI [52]: > 100 µM

SMILES: CN=c1ss/c(=N\C(=S)N(C)C)n1C
- TGI [1]: > 100 µM
- TGI [2]: > 100 µM
- TGI [3]: > 100 µM
- TGI [5]: > 100 µM
- TGI [53]: > 100 µM
- TGI [6]: > 100 µM
- TGI [7]: > 100 µM
- TGI [8]: > 100 µM
- TGI [9]: > 100 µM
- TGI [10]: > 100 µM
- TGI [11]: > 100 µM
- TGI [12]: > 100 µM
- TGI [13]: > 100 µM
- TGI [14]: > 100 µM
- TGI [15]: > 100 µM
- TGI [16]: > 100 µM
- TGI [17]: > 100 µM
- TGI [18]: > 100 µM
- TGI [19]: > 100 µM
- TGI [20]: > 100 µM
- TGI [21]: > 100 µM
- TGI [22]: > 100 µM
- TGI [23]: > 100 µM
- TGI [24]: > 100 µM
- TGI [25]: > 100 µM
- TGI [26]: > 100 µM
- TGI [27]: > 100 µM
- TGI [54]: > 100 µM
- TGI [28]: > 100 µM
- TGI [30]: > 100 µM
- TGI [31]: > 100 µM
- TGI [55]: > 100 µM
- TGI [32]: > 100 µM
- TGI [33]: > 100 µM
- TGI [34]: > 100 µM
- TGI [35]: > 100 µM
- TGI [36]: > 100 µM
- TGI [38]: > 100 µM
- TGI [39]: > 100 µM
- TGI [40]: > 100 µM
- TGI [41]: > 100 µM
- TGI [42]: > 100 µM
- TGI [43]: > 100 µM
- TGI [44]: > 100 µM
- TGI [56]: > 100 µM
- TGI [45]: > 100 µM
- TGI [46]: > 100 µM
- TGI [47]: > 100 µM
- TGI [48]: > 100 µM
- TGI [49]: > 100 µM
- TGI [50]: > 100 µM
- TGI [51]: > 100 µM
- TGI [57]: > 100 µM
- TGI [52]: > 100 µM

SMILES: CCOC(=O)c1c2ccc(/C=C/c3ccccn3)ccc-2c(C(=O)OCC)c1N
- TGI [1]: > 100 µM
- TGI [3]: > 100 µM
- TGI [4]: > 100 µM
- TGI [5]: > 100 µM
- TGI [53]: > 100 µM
- TGI [6]: > 100 µM
- TGI [7]: > 100 µM
- TGI [12]: > 100 µM
- TGI [13]: > 100 µM
- TGI [14]: > 100 µM
- TGI [15]: > 100 µM
- TGI [16]: > 100 µM
- TGI [17]: > 100 µM
- TGI [18]: > 100 µM
- TGI [19]: > 100 µM
- TGI [20]: > 100 µM
- TGI [21]: > 100 µM
- TGI [22]: > 100 µM
- TGI [23]: > 100 µM
- TGI [25]: > 100 µM
- TGI [26]: > 100 µM
- TGI [27]: 1.49 µM
- TGI [54]: > 100 µM
- TGI [28]: > 100 µM
- TGI [58]: > 100 µM
- TGI [29]: > 100 µM
- TGI [30]: > 100 µM
- TGI [31]: > 100 µM
- TGI [55]: > 100 µM
- TGI [32]: > 100 µM
- TGI [33]: > 100 µM
- TGI [59]: > 100 µM
- TGI [34]: > 100 µM
- TGI [36]: > 100 µM
- TGI [37]: > 100 µM
- TGI [38]: > 100 µM
- TGI [39]: > 100 µM
- TGI [40]: > 100 µM
- TGI [41]: > 100 µM
- TGI [42]: > 100 µM
- TGI [43]: > 100 µM
- TGI [44]: > 100 µM
- TGI [56]: > 100 µM
- TGI [45]: 0.966 µM
- TGI [46]: > 100 µM
- TGI [48]: > 100 µM
- TGI [50]: > 100 µM
- TGI [51]: > 100 µM
- TGI [57]: > 100 µM
- TGI [52]: > 100 µM

SMILES: Cn1c(CBr)nc2c1C(=O)c1nc(CBr)[nH]c(=O)c1C2=O
- TGI [1]: > 100 µM
- TGI [2]: > 100 µM
- TGI [3]: > 100 µM
- TGI [5]: > 100 µM
- TGI [53]: > 100 µM
- TGI [6]: > 100 µM
- TGI [8]: > 100 µM
- TGI [10]: > 100 µM
- TGI [11]: > 100 µM
- TGI [12]: > 100 µM
- TGI [13]: > 100 µM
- TGI [15]: > 100 µM
- TGI [16]: > 100 µM
- TGI [17]: > 100 µM
- TGI [18]: > 100 µM
- TGI [21]: 68.6 µM
- TGI [22]: > 100 µM
- TGI [25]: > 100 µM
- TGI [26]: > 100 µM
- TGI [27]: > 100 µM
- TGI [28]: > 100 µM
- TGI [58]: > 100 µM
- TGI [29]: > 100 µM
- TGI [30]: > 100 µM
- TGI [31]: > 100 µM
- TGI [55]: > 100 µM
- TGI [33]: > 100 µM
- TGI [59]: > 100 µM
- TGI [35]: > 100 µM
- TGI [36]: > 100 µM
- TGI [37]: > 100 µM
- TGI [38]: > 100 µM
- TGI [39]: > 100 µM
- TGI [40]: > 100 µM
- TGI [41]: > 100 µM
- TGI [43]: > 100 µM
- TGI [44]: > 100 µM
- TGI [45]: > 100 µM
- TGI [46]: > 100 µM
- TGI [48]: > 100 µM
- TGI [50]: > 100 µM
- TGI [51]: > 100 µM
